From patent publication US8680275B2, “Fused heterocyclic compounds as orexin receptor modulators” (Janssen Pharmaceutica NV, priority 2009, dated 2014)

Columns and labels:
[1] = molecular target: human orexin-2 receptor (Homo sapiens (Human), UniProt O43614); test: Human orexin 2 receptor radioligand binding ([3H]-EMPA competition); details: HEK293 cells stably expressing human orexin-2 receptor; [3H]-EMPA 5 nM final; read-out: OR-2 Ki
Description: (§1) The in vitro affinity of the compounds for the human orexin-1 and orexin-2 receptors was determined by competitive radioligand binding using [^3H]SB SB674042 (1-(5-(2-fluoro-phenyl)-2-methyl-thiazol-4-yl)-1-((S)-2-(5-phenyl-(1,3,4)oxadiazol-2-ylmethyl)-pyrrolidin-1-yl)methanone) (Langmead et al., British Journal of Pharmacology 2004, 141:340-346.) and [^3H]EMPA (N-ethyl-2[(6-methoxy-pyridin-3-yl)-(toluene-2-sulfonyl)-amino]-N-pyridin-3-ylmethyl acetamide) (Malherbe et al., British Journal of Pharmacology, 2009, 156(8), 1326-1341), respectively.
Human Orexin 2 Receptor Radioligand Binding Studies
HEK293 stably expressing human orexin-2 receptor (Genebank accession number NM_001526) were grown to confluency in DMEM/F12 (Gibco, Cat #11039), in DMEM, 10% FBS, 1× Pen/Strep, 1× NaPyruvate, 1×HEPES, 600 ug/ml G418 media on 150 cm^2 tissue culture plates, washed with 5 mM EDTA in PBS (HyClone Dulbecco's Phosphate Buffered Saline 1× with Calcium and Magnesium, Cat #SH30264.01, hereafter referred to simply as PBS) and scraped into 50 ml tubes. After centrifugation (2K xG, 10 min at 4° C.), the supernatant was aspirated and the pellets frozen and stored at −80° C. Cells were resuspended in PBS in the presence of 1 tablet of protease inhibitor cocktail (Roche, Cat. #11836145001) per 50 mL. […] Competition binding experiments in 96 well polypropylene plates were performed using [^3H]-EMPA (Moravek Corporation, specific activity=27 Ci/mmol), diluted to a […] concentration in PBS (5 nM final concentration). Compounds were solubilized in 100% DMSO (Acros Organics, Cat. #61042-1000) and tested over a range of 7 concentrations (from 0.1 nM to 10 μM). The final concentration of DMSO in the reactions is equal to or less than 0.1%. Total and nonspecific binding was determined in the absence and presence of 10 μM (N-[2-(3,4-dimethoxyphenyl)ethyl]-N-methylnaphthalene-1-carboxamide, CAS Registry #1089563-88-1). The total volume of each reaction is 200 μL (20 μL of diluted compounds, 80 μL of [^3H]-EMPA diluted in PBS and 100 μL of the cell suspension). Reactions were run for 60 min at room temperature and terminated by filtration through GF/C filter plates (PerkinElmer, Cat. #6005174) presoaked in 0.3% polyethylenimine using the cell harvester (Perkin Elmer Filtermate). The plates were washed 3 times by aspirating 30 ml PBS through the plates. Plates were dried in 55° C. oven for 60 min, scintillation fluid was added, and the radioactivity was counted on a Topcount (Packard).

[2] = molecular target: human orexin 1 receptor (Homo sapiens (Human), UniProt O43613); test: Human orexin 1 receptor radioligand binding ([3H]-SB674042 competition); details: CHO cells stably expressing human orexin 1 receptor; [3H]-SB674042 4 nM final; read-out: OR-1 Ki
Description: as §1
Human Orexin 1 Receptor Radioligand Binding Studies
Chinese ovary cells (CHO) stably expressing human orexin 1 receptor (Genebank accession number NM_001526) were grown to confluency in DMEM/F12 (Gibco, Cat #11039), 10% FBS, 1× Pen/Strep, 600 μg/mL G418 media on 150 cm^2 tissue culture plates, washed with 5 mM EDTA in PBS (HyClone Dulbecco's Phoshpate Buffered Saline 1× with Calcium and Magnesium, Cat #SH30264.01, hereafter referred to simply as PBS) and scraped into 50 ml tubes. After centrifugation (2K xG, 10 min at 4° C.), the supernatant was aspirated and the pellets frozen and stored at −80° C. Cells were resuspended in PBS in the presence of 1 tablet of protease inhibitor cocktail (Roche, Cat. #11836145001) per 50 mL. […] Compounds were solubilized in 100% DMSO (Acros Organics, Cat. #61042-1000) and tested over a range of 7 concentrations (from 0.1 nM to 10 μM). The final concentration of DMSO in the reactions is equal to or less than 0.1%. Total and nonspecific binding was determined in the absence and presence of 10 μM (1-(6,8-difluoro-2-methylquinolin-4-yl)-3-[4-(dimethylamino)phenyl]urea, CAS Registry #288150-92-5). The total volume of each reaction is 200 μL (20 μL of diluted compounds, 80 μL of [^3H]-SB674042 diluted in PBS and 100 μL of the cell suspension). Reactions were run for 60 min at room temperature and terminated by filtration through GF/C filter plates (PerkinElmer, Cat. #6005174) presoaked in 0.3% polyethylenimine using the cell harvester (PerkinElmer Filtermate). The plates were washed 3 times by aspirating 30 ml PBS through the plates. Plates were dried in 55° C. oven for 60 min, scintillation fluid was added, and the radioactivity was counted on a Topcount (Packard).

Sequence of human orexin 1 receptor (O43613 whole entry): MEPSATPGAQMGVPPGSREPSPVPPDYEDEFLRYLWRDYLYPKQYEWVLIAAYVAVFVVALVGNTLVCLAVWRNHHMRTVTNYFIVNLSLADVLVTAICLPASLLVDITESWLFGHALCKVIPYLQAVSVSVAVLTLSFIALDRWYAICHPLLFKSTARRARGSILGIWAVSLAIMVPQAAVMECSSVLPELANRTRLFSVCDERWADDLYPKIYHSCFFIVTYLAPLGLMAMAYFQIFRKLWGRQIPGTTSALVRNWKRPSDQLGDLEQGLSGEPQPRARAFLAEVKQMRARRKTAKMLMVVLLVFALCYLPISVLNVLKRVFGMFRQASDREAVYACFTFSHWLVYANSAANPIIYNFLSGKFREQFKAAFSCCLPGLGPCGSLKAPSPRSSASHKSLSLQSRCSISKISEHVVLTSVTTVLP
Sequence of human orexin-2 receptor (O43614 whole entry): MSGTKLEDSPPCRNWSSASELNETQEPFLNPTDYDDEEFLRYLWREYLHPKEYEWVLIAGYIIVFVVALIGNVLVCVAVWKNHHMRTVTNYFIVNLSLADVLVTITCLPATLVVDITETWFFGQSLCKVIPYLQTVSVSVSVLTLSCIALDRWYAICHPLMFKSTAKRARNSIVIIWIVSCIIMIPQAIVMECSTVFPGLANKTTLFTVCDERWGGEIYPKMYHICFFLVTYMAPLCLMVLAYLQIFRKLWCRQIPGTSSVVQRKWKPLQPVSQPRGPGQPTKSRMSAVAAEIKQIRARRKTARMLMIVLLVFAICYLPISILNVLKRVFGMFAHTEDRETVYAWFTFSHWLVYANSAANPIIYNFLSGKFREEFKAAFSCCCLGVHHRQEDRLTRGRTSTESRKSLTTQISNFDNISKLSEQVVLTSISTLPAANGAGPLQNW

Compound	Ki [1] [nM]	Ki [2] [nM]
COc1ccccc1C(=O)N1CC2CN(c3nccc(-c4ccccc4)n3)C2C1 (stereo not shown) [Example 53, 3-[(2-Methoxyphenyl)carbonyl]-6-(4-phenylpyrimidin-2-yl)-3,6-diazabicyclo[3.2.0]heptane]	1810	3700
O=C(c1ccccc1-n1nccn1)N1CC2CN(c3nccc(-c4ccccc4)n3)C2C1 (stereo not shown) [Example 67, 6-(4-Phenylpyrimidin-2-yl)-3-{[2-(2H-1,2,3-triazol-2-yl)phenyl]carbonyl}-3,6-diazabicyclo[3.2.0]heptane]	156	225
Cc1cncc(N2C[C@@H]3CCN(C(=O)c4cccc(F)c4-n4nccn4)C[C@@H]32)n1 [Example 110, (1R,6S)-3-{[3-Fluoro-2-(2H-1,2,3-triazol-2-yl)phenyl]carbonyl}-8-(6-methylpyrazin-2-yl)-3,8-diazabicyclo[4.2.0]octane]	220	10000
CCOc1ccc2ccccc2c1C(=O)N1CC2CN(c3nc(OC)cc(OC)n3)C2C1 (stereo not shown) [Example 64, 6-(4,6-Dimethoxypyrimidin-2-yl)-3-[(2-ethoxynaphthalen-1-yl)carbonyl]-3,6-diazabicyclo[3.2.0]heptane]	109	808
Cc1cc(C)nc(N2CC3CN(C(=O)c4ccccc4Br)CC32)n1 (stereo not shown) [Example 58, 3-[(2-Bromophenyl)carbonyl]-6-(4,6-dimethylpyrimidin-2-yl)-3,6-diazabicyclo[3.2.0]heptane]	1050	9650
Cc1nccnc1N1C[C@@H]2CCN(C(=O)c3c(F)cccc3-n3nccn3)C[C@@H]21 [Example 106, (1R,6S)-3-{[2-Fluoro-6-(2H-1,2,3-triazol-2-yl)phenyl]carbonyl}-8-(3-methylpyrazin-2-yl)-3,8-diazabicyclo[4.2.0]octane]	10000	10000
Cc1cnc(C)c(N2C[C@@H]3CCN(C(=O)c4ccccc4-n4nccn4)C[C@@H]32)n1 [Example 96, (1R,6S)-8-(3,6-Dimethylpyrazin-2-yl)-3-{[2-(2H-1,2,3-triazol-2-yl)phenyl]carbonyl}-3,8-diazabicyclo[4.2.0]octane]	258	5840
Cc1cc(C)nc(N2C[C@@H]3CCN(C(=O)c4c(-c5ccccc5)noc4C)C[C@@H]32)n1 [Example 175, (1R,6S)-8-(4,6-Dimethylpyrimidin-2-yl)-3-[(5-methyl-3-phenylisoxazol-4-yl)carbonyl]-3,8-diazabicyclo[4.2.0]octane]	488	10000
COc1ccc(C(=O)N2CC[C@H]3CN(c4cc(N(C)C)ccn4)[C@H]3C2)c(-n2nccn2)c1 [Example 142, 2-[(1R,6S)-3-{[4-Methoxy-2-(2H-1,2,3-triazol-2-yl)phenyl]carbonyl}-3,8-diazabicyclo[4.2.0]oct-8-yl]-N,N-dimethylpyridin-4-amine]	9000	10000
COc1ccc(-c2ncccn2)c(C(=O)N2CC[C@H]3CN(c4nc(C)cc(C)n4)[C@H]3C2)c1F [Example 156, (1R,6S)-8-(4,6-Dimethylpyrimidin-2-yl)-3-[(2-fluoro-3-methoxy-6-pyrimidin-2-ylphenyl)carbonyl]-3,8-diazabicyclo[4.2.0]octane]	185	860
Cc1cc(C)nc(N2C[C@@H]3CCN(C(=O)c4cc(C)c(C)nc4-n4nccn4)C[C@@H]32)n1 [Example 157, (1R,6S)-8-(4,6-Dimethylpyrimidin-2-yl)-3-{[5,6-dimethyl-2-(2H-1,2,3-triazol-2-yl)pyridin-3-yl]carbonyl}-3,8-diazabicyclo[4.2.0]octane]	230	3900
Cc1cc(C)nc(N2C[C@@H]3CCN(C(=O)c4nccnc4-c4ccccc4)C[C@@H]32)n1 [Example 137, (1R,6S)-8-(4,6-Dimethylpyrimidin-2-yl)-3-[(3-phenylpyrazin-2-yl)carbonyl]-3,8-diazabicyclo[4.2.0]octane]	275	10000
Cc1ccnc(N2CC3CN(C(=O)c4ccccc4-c4cccs4)CC32)n1 (stereo not shown) [Example 60, 6-(4-Methylpyrimidin-2-yl)-3-[(2-thiophen-2-ylphenyl)carbonyl]-3,6-diazabicyclo[3.2.0]heptane]	188	10000

Molecules with a lower Ki [1], results first:

Ki [1] [nM]	Ki [2] [nM]	Compound
23	625	O=C(c1c(F)cccc1-n1nccn1)N1CC[C@H]2CN(c3nccc(C(F)(F)F)n3)[C@H]2C1 [Example 95, (1R,6S)-3-{[2-Fluoro-6-(2H-1,2,3-triazol-2-yl)phenyl]carbonyl}-8-[4-(trifluoromethyl)pyrimidin-2-yl]-3,8-diazabicyclo[4.2.0]octane]
9	156	Cc1cc(C)nc(N2C[C@@H]3CCN(C(=O)c4cccc(F)c4-c4cc[nH]n4)C[C@@H]32)n1 [Example 184, (1R,6S)-8-(4,6-Dimethylpyrimidin-2-yl)-3-{[3-fluoro-2-(1H-pyrazol-3-yl)phenyl]carbonyl}-3,8-diazabicyclo[4.2.0]octane]
15	392	Cc1cc(C)nc(N2C[C@@H]3CCN(C(=O)c4cc(F)ccc4-c4ccn[nH]4)C[C@@H]32)n1 [Example 171, (1R,6S)-8-(4,6-dimethylpyrimidin-2-yl)-3-{[5-fluoro-2-(1H-pyrazol-3-yl)phenyl]carbonyl}-3,8-diazabicyclo[4.2.0]octane]
13	134	Cc1cc(N2C[C@@H]3CCN(C(=O)c4c(F)cccc4-n4nccn4)C[C@@H]32)nc(C(F)(F)F)n1 [Example 32, (1R,6S)-(2-Fluoro-6-[1,2,3]triazol-2-yl-phenyl)-[8-(6-methyl-2-trifluoromethyl-pyrimidin-4-yl)-3,8-diaza-bicyclo[4.2.0]oct-3-yl]-methanone]
77	114	O=C(c1ccccc1-c1cccs1)N1CC2CN(c3cnc4ccccc4n3)C2C1 (stereo not shown) [Example 49, 2-{3-[(2-Thiophen-2-ylphenyl)carbonyl]-3,6-diazabicyclo[3.2.0]hept-6-yl}quinoxaline]
17	32	O=C(c1ccccc1-n1nccn1)N1CC[C@H]2CN(c3nc4cc(Cl)ccc4o3)[C@H]2C1 [Example 119, 5-Chloro-2-[(1R,6S)-3-{[2-(2H-1,2,3-triazol-2-yl)phenyl]carbonyl}-3,8-diazabicyclo[4.2.0]oct-8-yl]-1,3-benzoxazole]
57	1530	Cc1cc(C)nc(N2C[C@@H]3CCN(C(=O)c4cccc(F)c4-n4cccn4)C[C@@H]32)n1 [Example 155, (1R,6S)-8-(4,6-Dimethylpyrimidin-2-yl)-3-{[3-fluoro-2-(1H-pyrazol-1-yl)phenyl]carbonyl}-3,8-diazabicyclo[4.2.0]octane]
